Tests used:
lipoamide = compound: NC(=O)CCCCC1CCSS1 [lipoamide]; test: thermal stability z-score vs DMSO; higher = more thermally stabilized by treatment; conditions: HeLa, lipoamide concentration 100 µM
Protocol: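 Cellular thermal proteome profiling in HeLa cells. Cells were treated with 100 µM lipoamide for 1 h, with or without 1 mM arsenate for a further 1 h, then heated to ten temperatures (37-66.3 °C), and soluble protein was quantified by TMT mass spectrometry relative to 0.1% DMSO controls. The thermal stability score (sum of log2 fold changes minus the abundance score) was transformed to a z-score; mean of n = 3 experiments.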

potassium arsenate = compound: O=[As]([O-])(O)O.[K+] [potassium arsenate]; test: as above; conditions: HeLa; arsenate concentration 1 mM
Protocol: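 Cellular thermal proteome profiling in HeLa cells treated with 1 mM arsenate for 1 h (DMSO pretreatment), heated to ten temperatures (37-66.3 °C). Soluble protein was quantified by TMT mass spectrometry relative to DMSO controls; the thermal stability score was transformed to a z-score; mean of n = 3 experiments.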

[1] = arsenate co-treatment: 1 mM arsenate 1 h
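Note: each temperature applied for 3 min, abundance score taken as mean log2 fold change at the two lowest temperatures, z-score obtained by mean subtraction and division by SD.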

Sequence of UniProt O94822 (O94822 whole entry): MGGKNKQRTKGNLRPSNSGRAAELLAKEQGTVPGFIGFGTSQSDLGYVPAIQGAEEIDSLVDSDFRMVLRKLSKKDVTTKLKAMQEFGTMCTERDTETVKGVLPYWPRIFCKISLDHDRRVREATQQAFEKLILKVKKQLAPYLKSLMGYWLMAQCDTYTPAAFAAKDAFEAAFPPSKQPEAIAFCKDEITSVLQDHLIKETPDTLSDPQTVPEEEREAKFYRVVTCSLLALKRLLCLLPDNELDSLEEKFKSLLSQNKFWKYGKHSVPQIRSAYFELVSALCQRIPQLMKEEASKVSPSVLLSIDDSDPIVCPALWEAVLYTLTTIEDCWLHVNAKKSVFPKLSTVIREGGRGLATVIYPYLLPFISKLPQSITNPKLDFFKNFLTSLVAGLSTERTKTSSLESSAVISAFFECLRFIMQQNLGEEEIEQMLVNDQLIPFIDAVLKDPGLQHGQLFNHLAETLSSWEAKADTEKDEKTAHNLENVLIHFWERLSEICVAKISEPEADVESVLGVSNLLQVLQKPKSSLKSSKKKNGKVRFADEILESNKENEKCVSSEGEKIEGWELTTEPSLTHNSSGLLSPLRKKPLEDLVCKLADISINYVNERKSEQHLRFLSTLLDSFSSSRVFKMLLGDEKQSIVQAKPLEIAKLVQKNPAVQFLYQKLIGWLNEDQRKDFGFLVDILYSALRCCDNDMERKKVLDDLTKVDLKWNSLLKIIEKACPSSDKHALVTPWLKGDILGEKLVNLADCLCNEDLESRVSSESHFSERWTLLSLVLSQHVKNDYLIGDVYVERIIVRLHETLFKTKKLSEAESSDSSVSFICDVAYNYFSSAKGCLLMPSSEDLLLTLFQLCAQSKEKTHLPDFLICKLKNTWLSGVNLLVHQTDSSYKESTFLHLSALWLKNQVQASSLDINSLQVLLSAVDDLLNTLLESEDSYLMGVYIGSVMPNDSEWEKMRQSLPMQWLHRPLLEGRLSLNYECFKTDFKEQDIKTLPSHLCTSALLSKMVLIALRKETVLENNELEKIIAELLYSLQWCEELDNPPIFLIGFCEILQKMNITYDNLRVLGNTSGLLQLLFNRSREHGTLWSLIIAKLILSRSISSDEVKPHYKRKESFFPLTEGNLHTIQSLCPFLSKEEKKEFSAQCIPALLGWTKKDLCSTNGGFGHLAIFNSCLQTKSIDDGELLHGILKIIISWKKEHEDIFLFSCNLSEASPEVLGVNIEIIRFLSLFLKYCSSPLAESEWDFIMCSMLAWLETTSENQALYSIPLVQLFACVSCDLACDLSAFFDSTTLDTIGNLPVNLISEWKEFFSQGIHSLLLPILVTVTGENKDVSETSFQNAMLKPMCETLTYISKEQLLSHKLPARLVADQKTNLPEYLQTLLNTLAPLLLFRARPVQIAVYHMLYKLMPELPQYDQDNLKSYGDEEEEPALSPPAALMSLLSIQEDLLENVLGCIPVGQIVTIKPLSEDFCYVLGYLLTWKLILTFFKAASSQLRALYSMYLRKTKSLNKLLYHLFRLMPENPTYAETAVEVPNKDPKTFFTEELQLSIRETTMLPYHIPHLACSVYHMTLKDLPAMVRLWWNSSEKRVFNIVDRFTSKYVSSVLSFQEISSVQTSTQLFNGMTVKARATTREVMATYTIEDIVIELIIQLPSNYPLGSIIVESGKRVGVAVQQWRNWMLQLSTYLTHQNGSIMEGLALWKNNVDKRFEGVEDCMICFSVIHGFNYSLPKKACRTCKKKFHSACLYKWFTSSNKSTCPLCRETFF
Sequence of UniProt P30533 (P30533 whole entry): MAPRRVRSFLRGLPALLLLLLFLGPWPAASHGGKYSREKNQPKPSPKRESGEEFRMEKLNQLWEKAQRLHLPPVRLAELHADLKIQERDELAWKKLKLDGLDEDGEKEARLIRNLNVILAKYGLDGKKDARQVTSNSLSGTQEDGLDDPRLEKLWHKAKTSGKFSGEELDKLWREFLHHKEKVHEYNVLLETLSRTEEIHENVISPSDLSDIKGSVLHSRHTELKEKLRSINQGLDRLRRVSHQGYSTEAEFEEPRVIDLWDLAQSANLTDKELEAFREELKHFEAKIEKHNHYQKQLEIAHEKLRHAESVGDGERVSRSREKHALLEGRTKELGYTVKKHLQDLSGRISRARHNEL
Sequence of UniProt O95777 (O95777 whole entry): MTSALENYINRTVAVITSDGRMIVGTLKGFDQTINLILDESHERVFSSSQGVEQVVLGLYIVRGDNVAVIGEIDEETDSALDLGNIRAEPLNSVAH
Sequence of UniProt Q9Y333 (Q9Y333 whole entry): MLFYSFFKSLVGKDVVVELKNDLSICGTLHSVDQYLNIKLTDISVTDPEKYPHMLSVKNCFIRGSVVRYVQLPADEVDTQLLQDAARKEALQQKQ
Sequence of UniProt P48449 (P48449 whole entry): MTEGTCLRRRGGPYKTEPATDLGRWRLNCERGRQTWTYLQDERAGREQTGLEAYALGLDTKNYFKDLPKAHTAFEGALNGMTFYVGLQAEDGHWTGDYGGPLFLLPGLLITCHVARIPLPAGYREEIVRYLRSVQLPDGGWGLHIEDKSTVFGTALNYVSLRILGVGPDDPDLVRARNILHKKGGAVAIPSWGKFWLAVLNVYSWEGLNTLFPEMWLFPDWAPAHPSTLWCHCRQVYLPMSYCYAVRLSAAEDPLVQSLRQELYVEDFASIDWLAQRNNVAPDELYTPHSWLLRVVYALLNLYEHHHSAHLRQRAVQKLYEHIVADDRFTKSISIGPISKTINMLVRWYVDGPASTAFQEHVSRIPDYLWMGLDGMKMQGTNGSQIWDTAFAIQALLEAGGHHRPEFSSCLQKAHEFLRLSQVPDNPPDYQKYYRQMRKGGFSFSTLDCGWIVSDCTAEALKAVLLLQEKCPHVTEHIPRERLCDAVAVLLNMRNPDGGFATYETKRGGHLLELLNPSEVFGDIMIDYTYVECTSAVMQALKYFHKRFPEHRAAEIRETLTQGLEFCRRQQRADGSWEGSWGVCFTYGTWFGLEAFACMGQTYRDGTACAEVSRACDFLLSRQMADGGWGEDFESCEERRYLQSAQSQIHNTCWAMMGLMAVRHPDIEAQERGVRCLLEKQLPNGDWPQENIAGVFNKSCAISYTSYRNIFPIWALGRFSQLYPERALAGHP
Sequence of UniProt Q9BX40 (Q9BX40 whole entry): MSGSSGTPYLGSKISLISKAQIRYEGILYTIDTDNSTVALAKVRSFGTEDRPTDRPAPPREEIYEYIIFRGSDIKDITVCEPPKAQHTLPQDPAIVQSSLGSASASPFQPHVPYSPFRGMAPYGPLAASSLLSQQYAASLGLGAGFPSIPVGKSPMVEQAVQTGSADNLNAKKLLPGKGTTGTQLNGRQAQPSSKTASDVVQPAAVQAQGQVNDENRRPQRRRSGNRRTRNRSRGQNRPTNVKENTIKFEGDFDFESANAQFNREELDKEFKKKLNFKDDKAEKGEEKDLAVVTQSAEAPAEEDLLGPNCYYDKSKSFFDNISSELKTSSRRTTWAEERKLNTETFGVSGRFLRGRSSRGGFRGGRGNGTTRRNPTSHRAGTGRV
Sequence of UniProt Q15345 (Q15345 whole entry): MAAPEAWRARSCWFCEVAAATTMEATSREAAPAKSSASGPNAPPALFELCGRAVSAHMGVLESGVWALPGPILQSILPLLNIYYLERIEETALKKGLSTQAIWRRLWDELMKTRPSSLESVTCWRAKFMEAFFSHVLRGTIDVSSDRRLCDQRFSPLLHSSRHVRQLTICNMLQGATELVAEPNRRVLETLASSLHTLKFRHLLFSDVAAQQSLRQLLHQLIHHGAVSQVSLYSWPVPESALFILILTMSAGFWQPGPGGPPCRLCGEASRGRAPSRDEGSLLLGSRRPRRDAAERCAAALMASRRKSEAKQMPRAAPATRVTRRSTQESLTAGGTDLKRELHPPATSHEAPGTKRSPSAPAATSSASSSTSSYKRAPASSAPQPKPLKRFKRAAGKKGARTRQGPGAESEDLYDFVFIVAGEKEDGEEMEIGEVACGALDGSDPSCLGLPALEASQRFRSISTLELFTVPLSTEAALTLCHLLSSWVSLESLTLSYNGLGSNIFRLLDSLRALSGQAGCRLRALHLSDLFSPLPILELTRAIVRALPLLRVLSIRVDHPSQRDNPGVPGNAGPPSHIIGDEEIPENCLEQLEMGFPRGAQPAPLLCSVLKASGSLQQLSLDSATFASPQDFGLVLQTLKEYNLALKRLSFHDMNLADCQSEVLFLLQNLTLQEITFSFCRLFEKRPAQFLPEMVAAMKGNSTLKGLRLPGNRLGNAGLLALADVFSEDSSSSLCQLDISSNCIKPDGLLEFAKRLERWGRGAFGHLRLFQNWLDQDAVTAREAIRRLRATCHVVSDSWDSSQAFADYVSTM
Sequence of UniProt Q9UK45 (Q9UK45 whole entry): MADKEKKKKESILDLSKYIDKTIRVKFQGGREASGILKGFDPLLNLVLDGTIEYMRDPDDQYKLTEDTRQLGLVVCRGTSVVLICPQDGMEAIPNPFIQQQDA
Sequence of UniProt Q8N1G4 (Q8N1G4 whole entry): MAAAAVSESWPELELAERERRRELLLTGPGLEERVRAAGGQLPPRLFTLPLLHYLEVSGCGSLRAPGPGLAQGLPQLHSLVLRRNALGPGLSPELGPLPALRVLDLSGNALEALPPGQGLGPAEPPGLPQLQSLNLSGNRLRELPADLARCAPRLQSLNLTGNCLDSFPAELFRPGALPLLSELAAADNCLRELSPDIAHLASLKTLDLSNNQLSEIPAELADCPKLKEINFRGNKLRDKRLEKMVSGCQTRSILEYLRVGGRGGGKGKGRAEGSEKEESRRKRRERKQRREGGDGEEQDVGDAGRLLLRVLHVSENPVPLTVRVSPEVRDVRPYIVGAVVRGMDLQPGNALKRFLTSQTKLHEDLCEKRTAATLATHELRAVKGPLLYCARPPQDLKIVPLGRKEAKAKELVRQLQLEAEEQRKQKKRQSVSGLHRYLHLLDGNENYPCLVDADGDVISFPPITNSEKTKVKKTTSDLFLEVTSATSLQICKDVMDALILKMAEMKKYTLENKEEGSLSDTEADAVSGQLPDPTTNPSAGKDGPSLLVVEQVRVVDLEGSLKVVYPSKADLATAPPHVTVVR

Row | Target | thermal stability z-score (lipoamide; [1]) | thermal stability z-score (lipoamide; arsenate co-treatment: none) | thermal stability z-score (potassium arsenate)
1 | LPP (UniProt Q93052) | -0.407 | -0.444 | -5.37
2 | LRBA (UniProt P50851) | 0.015 | 0.0915 | 0.326
3 | LRCH1 (UniProt Q9Y2L9) | 0.0183 | 0.0529 | 0.494
4 | LRCH3 (UniProt Q96II8) | -0.0719 | -0.00251 | -0.153
5 | LRCH4 (UniProt O75427) | 0.0394 | -0.101 | -0.13
6 | LRP1 (UniProt Q07954) | -1.1 | -1.01 | -0.0899
7 | LRP6 (UniProt O75581) | -2.59 | -1.1 | -0.531
8 | LRP8 (UniProt Q14114) | -0.785 | -0.422 | -0.43
9 | LRPAP1 (UniProt P30533) | -1.07 | -0.56 | -0.32
10 | LRPPRC (UniProt P42704) | -1.08 | -0.312 | -0.267
11 | LRR1 (UniProt Q96L50) | 0.148 | 0.192 | -0.256
12 | LRRC8A (UniProt Q8IWT6) | 0.614 | 0.234 | -0.275
13 | LRRC8D (UniProt Q7L1W4) | 0.38 | -0.0451 | -0.198
14 | LRRC8E (UniProt Q6NSJ5) | 0.43 | -0.139 | -0.237
15 | LRRC16A (UniProt Q5VZK9) | 0.276 | 0.0854 | 1.26
16 | LRRC40 (UniProt Q9H9A6) | -0.119 | 0.108 | 0.245
17 | LRRC41 (UniProt Q15345) | -0.134 | -0.26 | -0.546
18 | LRRC42 (UniProt Q9Y546) | -0.294 | -0.0469 | -0.0558
19 | LRRC45 (UniProt Q96CN5) | -0.00638 | 0.0708 | 0.0892
20 | LRRC47 (UniProt Q8N1G4) | 0.175 | 0.38 | 1.06
21 | LRRC57 (UniProt Q8N9N7) | 0.252 | -0.185 | -0.186
22 | LRRC59 (UniProt Q96AG4) | -0.768 | -0.195 | -1.86
23 | LRRFIP1 (UniProt Q32MZ4) | 0.409 | 0.475 | 0.228
24 | LRRFIP2 (UniProt Q9Y608) | 1.31 | 1.11 | 1.07
25 | LRSAM1 (UniProt Q6UWE0) | -0.763 | -0.714 | -0.676
26 | LRWD1 (UniProt Q9UFC0) | -0.0805 | -0.0419 | -0.324
27 | LSG1 (UniProt Q9H089) | -0.18 | 0.17 | 3.55
28 | LSM1 (UniProt O15116) | 1.6 | 2.05 | 0.83

Row | Target | thermal stability z-score (lipoamide; [1]) | thermal stability z-score (lipoamide; arsenate co-treatment: none) | thermal stability z-score (potassium arsenate)
29 | LSM2 (UniProt Q9Y333) | 0.00908 | 0.0523 | -0.136
30 | LSM3 (UniProt P62310) | 0.229 | -0.327 | -0.624
31 | LSM4 (UniProt Q9Y4Z0) | 0.426 | 0.265 | 0.216
32 | LSM5 (UniProt Q9Y4Y9) | -0.69 | 0.0925 | -1.23
33 | LSM6 (UniProt P62312) | 0.895 | 0.267 | -0.309
34 | LSM7 (UniProt Q9UK45) | 0.466 | 0.456 | -0.425
35 | LSM8 (UniProt O95777) | 1.17 | 0.47 | -0.214
36 | LSM12 (UniProt Q3MHD2) | -0.205 | 0.447 | -0.27
37 | LSM14A (UniProt Q8ND56) | 0.62 | -0.111 | 1.03
38 | LSM14B (UniProt Q9BX40) | -0.354 | 0.0171 | 0.218
39 | LSR (UniProt Q86X29) | 0.221 | -0.243 | -0.177
40 | LSS (UniProt P48449) | 0.724 | 0.345 | -0.00616
41 | LTA4H (UniProt P09960) | 0.357 | 0.32 | -0.164
42 | LTBR (UniProt P36941) | -2.06 | -1.66 | 0.85
43 | LTN1 (UniProt O94822) | 0.0185 | 0.0878 | 0.0334
44 | LTV1 (UniProt Q96GA3) | 0.231 | -0.172 | 1.01
45 | LUC7L3 (UniProt O95232) | -1.15 | -0.26 | -0.899
46 | LUC7L (UniProt Q9NQ29) | -0.243 | -0.433 | -1.2
47 | LUZP1 (UniProt Q86V48) | -0.424 | -0.079 | -0.191
48 | LXN (UniProt Q9BS40) | 0.274 | 0.0402 | 0.992
49 | LY6K (UniProt Q17RY6) | -3.06 | -2.7 | 2.42
50 | LYAR (UniProt Q9NX58) | -0.425 | -0.893 | -3.87
51 | LYN (UniProt P07948) | 0.264 | 0.362 | -0.89
52 | LYPD3 (UniProt O95274) | -0.113 | 0.0676 | -0.484
53 | LYPLA1 (UniProt O75608) | 0.624 | -0.159 | -0.862
54 | LYPLA2 (UniProt O95372) | 0.141 | 0.194 | 0.209
55 | LYPLAL1 (UniProt Q5VWZ2) | 0.152 | 0.0691 | 0.447
